This note sets out measurements from US20090263744A1, “ETHYLENICALLY UNSATURATED COMPOUND, LIGHT SENSITIVE COMPOSITION, LIGHT SENSITIVE PLANOGRAPHIC PRINTING PLATE MATERIAL AND PRINTING PROCESS EMPLOYING THE SAME” (priority 2005, published 2009).

Series [1] is described as follows: Solubility of polymerizable monomer in alkali solution (25° C. KOH aqueous solution having a pH of 12.5). The class given is physicochemical. As to conditions: Table 3, pH 12.5. How it is done: (§1) Herein, “dissolve” implies that no precipitations or oily separated components are visually observed under the following experimental conditions. Solubility in a 25° C. KOH aqueous solution having a pH of 12.5 or 25° C. pure water is represented by a value obtained by the following measuring method.
(§2) An ethylenically unsaturated compound is added to 20 ml of the solution or pure water described above at 25° C. in a 100 ml conical flask, stirred with a stirrer having a 1 cm long stirrer piece at a rate of 300 rpm for one hour, then allowed to stand for five minutes.
(§3) Solubility of polymerizable monomer to water or an alkali solution was measured according to the procedure described above.

A short description of series [2]: Solubility of polymerizable monomer in 25° C. pure water (visual, no precipitations or oily separated components). The class given is physicochemical. How it is done: as §1, §2, §3

Consider `C=CC(=O)OCC(CO)(COC(=O)C=C)COC(=O)C=C` [PETA, Pentaerythritol triacrylate], for which the “Solubility of polymerizable monomer, Alkali solution” value in series [1] is given as 0.1 % by weight. Further, the “Solubility of polymerizable monomer weight % (water)” value in series [2] (Table 2, water, 25° C.) was found to be 0.1 weight %. Also, the “Solubility of polymerizable monomer, Pure water” value in series [2] (Table 3, 25° C. pure water) worked out at 0.1 % by weight.
